# Assay results published in patent publication US20060179492A1, “Method of inhibiting neural transmission mediated by serotonin-2a and enhancing sensorimotor gating” (The Regents of the University of California, priority 2002, published 2006).
# Where a name gives a salt, the structure may show the parent alone.
# Assays:
# [1] = test system: PPI deficits produced by the serotonin-2A agonist DOI; experiment: DOI-induced disruption of prepulse inhibition (PPI) of the startle reflex; format: in vivo, Sprague Dawley rats; conditions: for startle magnitude (main effect, ANOVA): NT69L versus DOI experiment
# Method: (§1) Animals: Ninety-six male Sprague Dawley rats (250-300 grams at testing) were obtained from Harlan Laboratories, San Diego. In the experiments of Example 1, all groups contained an n of 8. Animals were housed in groups of two or three in clear plastic chambers in a climate controlled room on a 12:12 hour light/dark cycle (lights on 7:00 a.m.-7:00 p.m.). The rats were handled prior to testing. All testing occurred during the light phase of the rats' circadian illumination schedule and they were allowed free access to food and water for the extent of the study, except during the actual testing. Behavioral testing was performed between 9:00 am and 4:30 pm beginning 7 days after arrival. All studies described in this publication were carried out in accordance with the “Principles of laboratory and animal care” as described in the Guide for the Care and Use of Laboratory Animals as adopted and promulgated by the National Institutes of Health.
# (§2) Drugs: PD149163 (LysΨ(CH2NH)-Lys-Pro-Trp-tLeu-Leu-OEt) was generously made available by the NIMH Chemical Synthesis and Drug Supply Program, and SR1 International, Menlo Park, Calif. NT69L (N-methyl-Arg-Lys-Pro-L-neo-Trp-tLeu-Leu) was developed at Mayo Clinic, Jacksonville, Fla., as described in Tyler-McMahon et al. 2000. DOI and cirazoline hydrochloride were obtained from Sigma Chemicals, St. Louis, Mo. All drugs used were dissolved in saline.
# (§3) Startle Testing and Test Sessions. Startle testing was performed in four identical startle chambers obtained from San Diego Instruments (San Diego, Calif.). Each chamber consisted of a clear non-restrictive Plexiglass cylinder resting on a Plexiglass platform inside a ventilated and illuminated enclosure housed in a sound-attenuated room. A continuous background noise of 65 dB, as well as the various acoustic stimuli, was produced within each chamber by a high-frequency loudspeaker (Radio Shack Supertweeter, San Diego, Calif.). The whole-body startle response of each animal produced vibrations of the Plexiglass cylinder, which were transduced into analog signals by a piezoelectric unit, mounted underneath the Plexiglass platform (Mansbach et al., 1988). These analog signals were then digitized and stored by an interface unit connected to a microcomputer. Startle amplitude was defined as the degree of motion detected by the piezoelectric unit.
# (§4) The animals were subjected to a 5-minute acclimation to the 65 dB background noise, which continued throughout the session. The acclimation was followed by a 15 minute PPI test session. Five trial types were presented during the test session: 40 msec 120 dB startle pulses (PULSE-ALONE), startle pulses preceded 100 msecs by 20 msec prepulses of either 4, 8, or 12 dB above background, and NO-[…] trials. All trial types were presented in pseudo-random order separated by an average of 15 seconds. In addition, four PULSE-ALONE trials that were not used in the calculation of PPI values were presented at the beginning and at the end of the test session, to habituate animals to the pulse and in order to provide a measure of habituation across the session.
# NT69L versus DOI. Thirty-two drug-naïve rats were administered subcutaneous (SC) injections of the following doses of NT69L, 0 (saline), 0.1, 1, or 2 mg/kg. Thirty minutes later, they were injected SC with either saline or DOI (0.5 mg/kg), a dose known to reliably disrupt PPI. Animals were tested in startle chambers thirty minutes later and PPI measured as described. After one week, animals were tested a second time during which treatment and testing procedures were the same except that rats that previously received DOI received saline and vice versa. The dose of NT69L was kept constant on both test days.
# Data and Statistical Analysis. A startle response was recorded for all stimuli presentations. […]
# [2] = test system: PPI deficits produced by DOI; conditions: reported by Geyer et al.; cited from earlier work
# [3] = test system: PPI deficits produced by the alpha-1 adrenergic agonist cirazoline; experiment: Cirazoline-induced disruption of prepulse inhibition (PPI) of the startle reflex; format: in vivo, Sprague Dawley rats; conditions: for PPI of saline/cirazoline rats versus saline/saline rats: cirazoline 0.7 mg/kg SC
# Method: as §1, §2, §3, §4
# PD149163 versus cirazoline. Thirty-two drug-naïve rats were administered SC injections of the following doses of PD149163, 0 (saline), 0.01, 0.1, or 1 mg/kg. Thirty minutes later, they were injected SC with either saline or cirazoline (0.7 mg/kg), a dose known to reliably disrupt PPI. Animals were tested in startle chambers thirty minutes later and PPI measured as described. […]
# BB rats = experiment: Catalepsy bar test; format: in vivo, Brattleboro rats; conditions: 30 min after SC: haloperidol 1 mg/kg (P<0.001), clozapine 10 or 15 mg/kg, PD149163 1 or 2 mg/kg; versus saline
# Method: Doses selected were those that produced the greatest effect in the PPI studies. Thirty minutes after SC injections animals were tested in the using a method described by several other authors (Stanley and Glick, 1976; Costall et al., 1978; Wadenberg, 1996). This method involved placing the forepaws of each rat in an extended position over a pencil that was suspended horizontally 9 cm above the lab bench. The time spent in this position before the animal moved or corrected itself was considered a measure of catalepsy.
# PPI = conditions: sedating psychotropic drug without antipsychotic properties; cited from earlier work
# Brown Norway (BN) rats = experiment: PPI in Brown Norway rats with low PPI; format: in vivo; conditions: acute administration
# [4] = test system: alpha-1 adrenergic receptors; conditions: cited from earlier work
# serotonin-2A receptor = serotonin-2A receptor (Homo sapiens, UniProt P28223); conditions: cited from earlier work
# Sequence of serotonin-2A receptor (P28223 whole entry): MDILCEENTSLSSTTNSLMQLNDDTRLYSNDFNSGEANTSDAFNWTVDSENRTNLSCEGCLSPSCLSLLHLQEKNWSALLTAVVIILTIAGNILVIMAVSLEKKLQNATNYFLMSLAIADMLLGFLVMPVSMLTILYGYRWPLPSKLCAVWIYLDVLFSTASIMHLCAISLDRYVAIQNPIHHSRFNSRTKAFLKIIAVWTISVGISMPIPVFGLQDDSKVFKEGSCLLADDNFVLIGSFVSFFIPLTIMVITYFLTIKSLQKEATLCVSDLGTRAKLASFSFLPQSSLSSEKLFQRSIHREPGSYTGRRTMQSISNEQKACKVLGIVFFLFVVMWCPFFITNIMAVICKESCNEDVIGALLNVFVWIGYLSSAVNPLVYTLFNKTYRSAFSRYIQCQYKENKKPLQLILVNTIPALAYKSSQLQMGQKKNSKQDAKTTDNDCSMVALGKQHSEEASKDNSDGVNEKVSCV
# monoamine receptors = conditions: cited from earlier work
compound,measurement,setting,value
"COc1cc(CC(C)N)c(OC)cc1I.Cl (centres unmarked) [DOI, 1-(2,5-dimethoxy-4-iodophenyl)-2-aminopropane hydrochloride]",PPI of saline/DOI rats versus saline/saline rats,"[1]; DOI 0.5 mg/kg SC, P<0.001",significantly decreased PPI
same,"startle magnitude (main effect, ANOVA)",[1],no significant main effect
COc1cccc([C@H](O)C2CCN(CCc3ccc(F)cc3)CC2)c1OC [MDL100907],effect on PPI deficits produced by DOI,[2],antagonize PPI deficits produced by DOI
CN1CC[C@@H]2CN3CCc4cccc(c43)[C@@H]2C1.O=C(O)/C=C/C(=O)O [SDZ SER-082],effect on PPI deficits produced by DOI,[2],do not block DOI-induced PPI deficits
"c1ccc(C2CC2)c(OCC2=NCCN2)c1 [cirazoline, cirazoline hydrochloride]",PPI of saline/cirazoline rats versus saline/saline rats,"[3]; NT69L experiment, P<0.05",significantly decreased PPI
same,PPI of saline/cirazoline rats versus saline/saline rats,"[3]; PD149163 experiment, P<0.01",significantly decreased PPI
CN1CCN(C2=Nc3cc(Cl)ccc3Nc3ccccc32)CC1 [clozapine],catalepsy: time rats remained on the bar,BB rats,no dose of clozapine or PD149163 significantly increased
CN1C(=O)CN=C(c2ccccc2)c2cc(Cl)ccc21 [diazepam],effect on PPI,PPI,decrease rather than facilitate PPI
O=C(CCCN1CCC(O)(c2ccc(Cl)cc2)CC1)c1ccc(F)cc1 [haloperidol],catalepsy: time rats remained on the bar,BB rats,significantly increased the time rats remained on the bar
same,effect on PPI deficits produced by DOI,[2],do not block DOI-induced PPI deficits
same,PPI in BN rats,Brown Norway (BN) rats,did not enhance PPI
O=C(c1ccc(F)cc1)C1CCN(CCn2c(=O)[nH]c3ccccc3c2=O)CC1 [ketanserin],effect on PPI deficits produced by DOI,[2],antagonize PPI deficits produced by DOI
CC(C)NCC(O)COc1cccc2ccccc12 (centres unmarked) [propanolol],effect on PPI deficits produced by DOI,[2],do not block DOI-induced PPI deficits
CCN1CCC[C@H]1CNC(=O)c1c(O)c(Cl)cc(Cl)c1OC [raclopride],effect on PPI deficits produced by DOI,[2],do not block DOI-induced PPI deficits
Cc1nc2n(c(=O)c1CCN1CCC(c3noc4cc(F)ccc34)CC1)CCCC2 [risperidone],effect on PPI deficits produced by DOI,[2],antagonize PPI deficits produced by DOI
N-methyl-Arg-Lys-Pro-L-neo-Trp-tLeu-Leu [NT69L],binding to alpha-1 adrenergic receptors,[4],neither PD149163 or NT69L bind
same,PPI versus rats that received DOI/saline,"[1]; NT69L 0.1 mg/kg SC + DOI 0.5 mg/kg SC, P<0.001",significantly greater than PPI exhibited by rats that received DOI/saline
same,PPI versus rats that received DOI/saline,"[1]; NT69L 1 mg/kg SC + DOI 0.5 mg/kg SC, P<0.05",significantly greater than PPI exhibited by rats that received DOI/saline
same,PPI versus rats that received DOI/saline,"[1]; NT69L 2 mg/kg SC + DOI 0.5 mg/kg SC, P<0.01",significantly greater than PPI exhibited by rats that received DOI/saline
same,"startle magnitude (main effect, ANOVA)",[1],no significant main effect
same,effect on DOI-induced PPI deficits,"[1]; all three active doses of NT69L (0.1, 1, 2 mg/kg SC) 30 min before DOI 0.5 mg/kg SC, tested 30 min later",blocked the PPI deficits produced by DOI
same,effect on cirazoline-induced PPI deficits,[3]; NT69L 1 mg/kg SC 30 min before cirazoline 0.7 mg/kg SC,blocked the PPI deficits produced by cirazoline
same,startle versus rats that received cirazoline and saline,"[3]; cirazoline + NT69L 1 mg/kg SC, P<0.05",significantly lower
same,"startle magnitude (main effect, ANOVA)","[3]; cirazoline experiments, PD149163 P<0.05, NT69L P<0.01",significant main effect
same,binding to serotonin-2A receptors,serotonin-2A receptor,neither PD149163 or NT69L bind
same,affinity for monoamine receptors,monoamine receptors,minimal affinity
